Our source for the TGI and GI50 values is PubChem BioAssay (NCI).

Where “and” joins values, the source holds several entries; their conditions need not be identical. Identical values can stand only once.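 Method: 48-hour compound exposure of cells in 96-well plates, five concentrations, linear interpolation of endpoints. GI50 = concentration required for 50% inhibition of growth. The concentration for full growth arrest is given as TGI.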 Where only a bound is given, the exact number is not on record here.

Among the test systems are HCT-116 colon; NCI-H460 lung; M14 melanoma; SF-295 CNS; SNB-19 CNS; TK-10 renal; M19-MEL melanoma; XF 498 CNS; SR leukemia; NCI/ADR-RES ovarian.
Holding throughout (assay): DTP human tumour cell line panel, 48 h

By TGI is commonly meant the concentration giving total growth inhibition. As to `Cn1nc(-c2ccccc2)c(C(=O)/C=C/c2ccc(Cl)cc2)c(N2CCCC2)c1=O`, the total growth inhibition concentration (TGI) in the assay on HCT-116 colon is 8.11 µM; in the assay on NCI-H460 lung it was 12.9 µM; in the assay with M14 melanoma it was 22.2 µM; in the assay with SF-295 CNS it was 11.6 µM; with SNB-19 CNS, 21.7 µM; in the assay on TK-10 renal it was 26.6 µM. Moreover, the total growth inhibition concentration (TGI) amounted to 23.2 µM in the assay on M19-MEL melanoma and 28.3 µM with XF 498 CNS.

Consider `COc1ccc2c(c1)c1c3n2CCNN=C3CCC1`, for which the TGI in the assay with HCT-116 colon, in the assay with NCI-H460 lung, in the assay with SR leukemia, in the assay with M14 melanoma, with SF-295 CNS and in the assay on SNB-19 CNS was over 100 µM each time. In addition, the concentration for total growth inhibition (TGI) in the assay on TK-10 renal is over 86.9 µM; in the assay on M19-MEL melanoma it was over 100 µM; with XF 498 CNS, over 100 µM.

For the molecule `C/C(=N\NS(=O)(=O)c1ccc([N+](=O)[O-])cc1)c1ccc[n+]([O-])n1`, the TGI in the assay on HCT-116 colon amounted to 3.9 µM; in the assay with NCI-H460 lung it was 2.75 µM; in the assay with SR leukemia, 49 µM; in the assay on M14 melanoma, 4.84 µM; in the assay with SF-295 CNS, 7.05 µM; in the assay on SNB-19 CNS, 99.1 µM. The TGI with TK-10 renal worked out at 25.9 µM; in the assay with M19-MEL melanoma, 5.05 µM; in the assay with XF 498 CNS, 7.69 µM.

On to `CCCCNC1=C(C(=O)OCC)/C(=N/NC(=O)c2ccccc2O)CO1`, for which the TGI with HCT-116 colon, in the assay on NCI-H460 lung, in the assay with M14 melanoma, in the assay with SF-295 CNS, with SNB-19 CNS and in the assay with TK-10 renal was over 100 µM in each case. In addition, the TGI in the assay with M19-MEL melanoma and in the assay with XF 498 CNS was over 100 µM in each case.

As for `COc1ccc(C)cc1C1CCC(=O)O1` (configuration not stated), the TGI in the assay on HCT-116 colon, in the assay with NCI-H460 lung, in the assay with SR leukemia, in the assay with M14 melanoma, with SF-295 CNS and in the assay with SNB-19 CNS was over 100 µM in each case. Moreover, the TGI in the assay with TK-10 renal was over 100 µM; in the assay with M19-MEL melanoma it was over 100 µM; with XF 498 CNS, 99.2 µM.

For the molecule `CC(C)(C)Sc1nnc(SC(C)(C)C)c2c(=O)[nH]nc(SC(C)(C)C)c12`, the TGI in the assay with HCT-116 colon was 15.9 µM; in the assay on NCI-H460 lung it was 19.5 µM; with SR leukemia, 19.1 µM; in the assay with M14 melanoma it was 28.9 µM; in the assay on SF-295 CNS it was 23.8 µM; in the assay with SNB-19 CNS it was 23.8 µM. In addition, the concentration for total growth inhibition (TGI) came to 37.8 µM in the assay on TK-10 renal, 14.8 µM in the assay on M19-MEL melanoma and 28.7 µM in the assay with XF 498 CNS.

With `C#CCOCn1cnc2ncnc(N)c21`, the concentration for total growth inhibition (TGI) in the assay on HCT-116 colon, in the assay on NCI-H460 lung, in the assay on SR leukemia, in the assay with SF-295 CNS, in the assay on SNB-19 CNS and with TK-10 renal was over 100 µM throughout. Also, the concentration for total growth inhibition (TGI) with M19-MEL melanoma and in the assay on XF 498 CNS was over 100 µM each time.

Regarding `CC(=O)c1c2c(cc3c1CC1(C3)Cc3cc4c(c(C(=O)O)c3C1)CCC4)CCC2` (configuration not stated), the concentration for total growth inhibition (TGI) is 67.8 µM in the assay on HCT-116 colon; over 100 µM in the assay with NCI-H460 lung; 80.2 µM in the assay on SR leukemia; over 100 µM in the assay with M14 melanoma; over 100 µM in the assay on SF-295 CNS; over 100 µM in the assay with SNB-19 CNS. The concentration for total growth inhibition (TGI) with TK-10 renal, with M19-MEL melanoma and with XF 498 CNS was over 100 µM each time.

Consider `O=S1(=O)c2ccccc2N=C(c2ccccc2Cl)CC1c1ccc(F)cc1` (configuration not stated), for which the TGI with HCT-116 colon is 22.9 µM; in the assay with NCI-H460 lung, 34.6 µM; in the assay on M14 melanoma it was 35.3 µM; in the assay on SF-295 CNS, 34.4 µM; in the assay on SNB-19 CNS it was 31.4 µM; in the assay with TK-10 renal, 50.4 µM. Also, the TGI with M19-MEL melanoma was determined as 31.5 µM; in the assay on XF 498 CNS, 29 µM.

In the case of `CC(C)N1C(C)[C@@H](c2ccccc2)O[P@]1(=O)CC1=CCCCC1` (some centres not stated), the TGI in the assay with HCT-116 colon, in the assay with NCI-H460 lung, in the assay with SR leukemia, in the assay on M14 melanoma, with SF-295 CNS and with SNB-19 CNS was over 100 µM in each case. For the same molecule, the total growth inhibition concentration (TGI) in the assay with TK-10 renal, in the assay on M19-MEL melanoma and with XF 498 CNS was over 100 µM in each case.

For the molecule `Cc1ccc2nc(NC(=O)C(=O)CC(=O)c3cccc4ccccc34)sc2c1`, the TGI is over 100 µM with NCI-H460 lung; 44.2 µM in the assay on M14 melanoma; 48.4 µM in the assay with SF-295 CNS; over 100 µM in the assay on SNB-19 CNS; 44.6 µM in the assay on TK-10 renal; over 100 µM with M19-MEL melanoma. In the assay with XF 498 CNS, this molecule returned a TGI of over 100 µM.

For `CC(C)[Si](OCC1CC(C#N)OC(C)(C)O1)(C(C)C)C(C)C` (configuration not stated), the TGI in the assay on HCT-116 colon was 30.1 µM; in the assay on NCI-H460 lung, 30.8 µM; with SR leukemia, 41.5 µM; in the assay on M14 melanoma, 48.4 µM; with SF-295 CNS, 29.3 µM; in the assay with SNB-19 CNS, 50.8 µM. Moreover, the results for the TGI in the assay on TK-10 renal, in the assay with M19-MEL melanoma and in the assay on XF 498 CNS were over 100 µM, 76.9 µM and 37 µM, respectively.

The term GI50 denotes the concentration giving 50% growth inhibition. As for `CC(/C=N/N=C(N)N)=N\N=C(N)N`, the GI50 in the assay with HCT-116 colon is 52.1 µM; in the assay with NCI-H460 lung it was 26.3 µM; with NCI/ADR-RES ovarian, 20.8 µM; in the assay on SR leukemia, 1.95 µM; in the assay on SNB-19 CNS it was 14.5 µM; in the assay on TK-10 renal it was 32.3 µM. Further, the TGI in the assay with HCT-116 colon is 1370 µM; with NCI-H460 lung it was 201 µM; in the assay on NCI/ADR-RES ovarian, 61.1 µM and 126 µM; with SR leukemia, 333 µM; in the assay with M14 melanoma, 425 µM; in the assay on SF-295 CNS, 856 µM. Moreover, the results for the TGI in the assay on SNB-19 CNS, with TK-10 renal and in the assay with XF 498 CNS were 722 µM, 813 µM and 12 µM, respectively.

Turning to `Cc1noc(/N=C2\C=C(Nc3onc(C)c3C)C(=O)c3ccccc32)c1C`, the TGI in the assay on HCT-116 colon, in the assay with NCI-H460 lung, with SR leukemia, in the assay with M14 melanoma, in the assay with SF-295 CNS and with SNB-19 CNS was over 100 µM in each case. In addition, the results for the total growth inhibition concentration (TGI) with TK-10 renal, with M19-MEL melanoma and in the assay with XF 498 CNS were over 100 µM, 17.1 µM and over 100 µM, respectively.

As for `O=CCCCC(Sc1ccccc1)Sc1ccccc1`, the TGI was 28.4 µM in the assay on HCT-116 colon; 48.3 µM in the assay with SR leukemia; 51.3 µM with M14 melanoma; 40.7 µM with SF-295 CNS; over 100 µM in the assay on SNB-19 CNS; over 100 µM in the assay on TK-10 renal. Moreover, the total growth inhibition concentration (TGI) came out at 39.8 µM in the assay on M19-MEL melanoma and 42.6 µM with XF 498 CNS.

For the molecule `CC(=O)NC(CCCN(Cc1ccccc1)C(=O)N(C)N=O)C(=O)NCc1ccccc1` (configuration not stated), the concentration for total growth inhibition (TGI) in the assay with HCT-116 colon, with NCI-H460 lung, with M14 melanoma, in the assay with SF-295 CNS, in the assay with SNB-19 CNS and with TK-10 renal was over 100 µM in each case. Besides, the TGI with M19-MEL melanoma and in the assay on XF 498 CNS was over 100 µM in each case.

With `c1ccc(-c2nnc3nn4c(-c5ccccc5)cnnc4c3c2-c2ccccc2)cc1`, the concentration for total growth inhibition (TGI) with HCT-116 colon was over 100 µM; in the assay on NCI-H460 lung, over 100 µM; in the assay on SR leukemia it was over 100 µM; in the assay on M14 melanoma it was over 100 µM; in the assay on SF-295 CNS, over 100 µM; in the assay with SNB-19 CNS, 61.2 µM. Moreover, the concentration for total growth inhibition (TGI) was 83.1 µM in the assay with TK-10 renal, over 100 µM with M19-MEL melanoma and 57.1 µM in the assay on XF 498 CNS.

Regarding `O=C(/C=C/C1C(=O)NC(=O)NC1=O)CC(=O)C(=O)Nc1cc(Cl)c(Cl)cc1Cl`, the total growth inhibition concentration (TGI) with HCT-116 colon, with NCI-H460 lung, in the assay with SR leukemia, with M14 melanoma, with SF-295 CNS and in the assay with SNB-19 CNS was over 100 µM in each case. Also, the concentration for total growth inhibition (TGI) in the assay on TK-10 renal, with M19-MEL melanoma and with XF 498 CNS was over 100 µM each time.

With `Cc1c2ccncc2c(C)c2c1[nH]c1ccc(Cl)cc12`, the concentration for total growth inhibition (TGI) in the assay with HCT-116 colon is 2.98 µM and 5.14 µM; in the assay on NCI-H460 lung it was 4.46 µM and 12.2 µM; in the assay on NCI/ADR-RES ovarian, 4.75 µM; in the assay on M14 melanoma, 16.7 µM; in the assay with SF-295 CNS, 8.38 µM and 15.3 µM; in the assay on SNB-19 CNS, 8.36 µM and 15.5 µM. The TGI in the assay with TK-10 renal is 18.1 µM; in the assay with M19-MEL melanoma, 7.93 µM and 8.98 µM; with XF 498 CNS it was 9.43 µM and 2.71 µM. For the same molecule, the GI50 in the assay with NCI-H460 lung is 3.08 µM; in the assay with SF-295 CNS, 2.56 µM and 3.56 µM; with SNB-19 CNS it was 3 µM; in the assay on XF 498 CNS it was 1.41 µM.

`CC1=CC(=O)NP(=O)(C23CC4CC(CC(C4)C2)C3)N1` (configuration not stated): the concentration for total growth inhibition (TGI) with HCT-116 colon, with NCI-H460 lung, with SR leukemia, in the assay with M14 melanoma, with SF-295 CNS and with SNB-19 CNS was over 100 µM in each case. Moreover, the total growth inhibition concentration (TGI) in the assay on TK-10 renal, in the assay with M19-MEL melanoma and in the assay with XF 498 CNS was over 100 µM each time.
